What is called Ki is the dissociation constant of the complex between target and ligand, obtained from inhibition or displacement. A lower Ki goes with tighter binding. For orientation: Km means the substrate concentration at which the rate is half of its maximum.

Series [1] concerns the target T1, Solute carrier family 22 member 6 (Rattus norvegicus, UniProt O35956).
T1 sequence (O35956 whole entry): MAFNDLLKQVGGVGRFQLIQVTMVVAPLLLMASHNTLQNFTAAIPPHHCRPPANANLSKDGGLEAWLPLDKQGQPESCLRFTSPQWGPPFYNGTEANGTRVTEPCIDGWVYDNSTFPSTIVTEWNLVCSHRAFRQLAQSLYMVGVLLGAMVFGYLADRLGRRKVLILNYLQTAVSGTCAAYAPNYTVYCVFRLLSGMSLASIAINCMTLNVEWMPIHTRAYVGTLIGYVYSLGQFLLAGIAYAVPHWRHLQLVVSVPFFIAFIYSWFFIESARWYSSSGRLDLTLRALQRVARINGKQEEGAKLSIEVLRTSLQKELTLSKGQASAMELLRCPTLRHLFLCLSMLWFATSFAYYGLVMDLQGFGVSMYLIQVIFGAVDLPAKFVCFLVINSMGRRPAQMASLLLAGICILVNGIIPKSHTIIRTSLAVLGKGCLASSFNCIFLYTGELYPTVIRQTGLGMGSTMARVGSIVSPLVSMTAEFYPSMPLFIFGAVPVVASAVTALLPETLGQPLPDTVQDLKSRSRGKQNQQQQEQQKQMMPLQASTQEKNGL
Put plainly: TP_TRANSPORTER: inhibition of PAH uptake in Xenopus laevis oocytes. In kind it is functional, cell-based, Oocyte.

In series [2] the target is T1, Solute carrier family 22 member 6. Put plainly: TP_TRANSPORTER: inhibition of DNP-NAC uptake (DNP-NAC: 1 uM, Benzyl-NAC: 1000 uM) in Xenopus laevis oocytes. Conditions: oocyte. In kind it is functional, cell-based.
Series [3] has the same target. Put plainly: TP_TRANSPORTER: inhibition of PAH uptake (PAH: 20 uM, PentaCl-butadiene-NAC: 500 uM) in Xenopus laevis oocytes. In kind it is functional, cell-based. The following applies: oocyte.
Series [4] has the same target. Put plainly: TP_TRANSPORTER: inhibition of DNP-NAC uptake (DNP-NAC: 1 uM, PentaCl-butadiene-NAC: 1000 uM) in Xenopus laevis oocytes. In kind it is functional, cell-based. Conditions: oocyte.
For series [5] the target is unchanged. In words: TP_TRANSPORTER: inhibition of PAH uptake (PAH: 20 uM, Allyl-NAC: 1000 uM) in Xenopus laevis oocytes. In kind it is functional, cell-based. Conditions: oocyte.
The target is the same in series [6]. Put plainly: TP_TRANSPORTER: inhibition of DNP-NAC uptake (DNP-NAC: 1 uM, Allyl-NAC: 1000 uM) in Xenopus laevis oocytes. In kind it is functional, cell-based. The following applies: oocyte.
For series [7] the target is unchanged. In words: TP_TRANSPORTER: inhibition of PAH uptake (PAH: 20 uM, 3-Phenyl-propyl-NAC: 1000 uM) in Xenopus laevis oocytes. In kind it is functional, cell-based. The following applies: oocyte.
Series [8] shares this target. Put plainly: TP_TRANSPORTER: inhibition of DNP-NAC uptake (DNP-NAC: 1 uM, 3-Phenyl-propyl-NAC: 1000 uM) in Xenopus laevis oocytes. In kind it is functional, cell-based. The following applies: oocyte.
Series [9] has the same target. Put plainly: TP_TRANSPORTER: inhibition of DNP-NAC uptake (DNP-NAC: 1 uM, NAC: 1000 uM) in Xenopus laevis oocytes. In kind it is functional, cell-based. The following applies: oocyte.
Series [10] shares this target. In words: TP_TRANSPORTER: inhibition of PAH uptake (PAH: 20 uM, diCl-vinyl-NAC: 1000 uM) in Xenopus laevis oocytes. In kind it is functional, cell-based. The following applies: oocyte.
Series [11] has the same target. Put plainly: TP_TRANSPORTER: inhibition of DNP-NAC uptake (DNP-NAC: 1 uM, diCl-vinyl-NAC: 1000 uM) in Xenopus laevis oocytes. In kind it is functional, cell-based. The following applies: oocyte.
The target is the same in series [12]. Put plainly: TP_TRANSPORTER: inhibition of PAH uptake (PAH: 20 uM, Dodecyl-NAC: 500 uM) in Xenopus laevis oocytes. In kind it is functional, cell-based. Conditions: oocyte.
For series [13] the target is unchanged. In words: TP_TRANSPORTER: inhibition of DNP-NAC uptake (DNP-NAC: 1 uM, Dodecyl-NAC: 1000 uM) in Xenopus laevis oocytes. In kind it is functional, cell-based. The following applies: oocyte.
Series [14] has the same target. In words: TP_TRANSPORTER: inhibition of PAH uptake (PAH: 20 uM, Propyl-NAC: 1000 uM) in Xenopus laevis oocytes. In kind it is functional, cell-based. The following applies: oocyte.
Series [15] has the same target. Put plainly: TP_TRANSPORTER: inhibition of PAH uptake (PAH: 20 uM, Butyl-NAC: 500 uM) in Xenopus laevis oocytes. In kind it is functional, cell-based. Conditions: oocyte.
Series [16] has the same target. In words: TP_TRANSPORTER: inhibition of DNP-NAC uptake (DNP-NAC: 1 uM, Propyl-NAC: 1000 uM) in Xenopus laevis oocytes. In kind it is functional, cell-based. Conditions: oocyte.
Series [17] shares this target. In words: TP_TRANSPORTER: inhibition of DNP-NAC uptake (DNP-NAC: 1 uM, Butyl-NAC: 1000 uM) in Xenopus laevis oocytes. In kind it is functional, cell-based. The following applies: oocyte.
The target is the same in series [18]. In words: TP_TRANSPORTER: inhibition of PAH uptake (PAH: 20 uM, N-acetylnorleucine: 1000 uM) in Xenopus laevis oocytes. In kind it is functional, cell-based. Conditions: oocyte.
For series [19] the target is unchanged. In words: TP_TRANSPORTER: inhibition of DNP-NAC uptake (DNP-NAC: 1 uM, N-acetylnorleucine: 1000 uM) in Xenopus laevis oocytes. Conditions: oocyte. In kind it is functional, cell-based.
For series [20] the target is unchanged. In words: TP_TRANSPORTER: inhibition of PAH uptake (PAH: 20 uM, Propanol-NAC: 1000 uM) in Xenopus laevis oocytes. In kind it is functional, cell-based. Conditions: oocyte.
The target is the same in series [21]. In words: TP_TRANSPORTER: inhibition of DNP-NAC uptake (DNP-NAC: 1 uM, Propanol-NAC: 1000 uM) in Xenopus laevis oocytes. In kind it is functional, cell-based. The following applies: oocyte.
Substrate in series [22]: CC(=O)N[C@@H](CSc1ccc([N+](=O)[O-])cc1[N+](=O)[O-])C(=O)O
In words: TP_TRANSPORTER: uptake in Xenopus laevis oocytes. In kind it is functional, cell-based, Oocyte.

The molecule `COC(=O)[C@@H](CSCc1ccccc1)NC(C)=O` registered a Ki in series [1] of 400 nM. The Activity result in series [2] is “inhibitor [(at a rough estimate) 30 % of control]”.
Molecule `CC(=O)N[C@@H](CSc1ccc([N+](=O)[O-])cc1[N+](=O)[O-])C(=O)O` had a Ki in series [1] of 1900 nM. This counts as single-digit micromolar.
For the molecule `CC(=O)NC(CS/C(Cl)=C(\Cl)C(Cl)=C(Cl)Cl)C(=O)O` (stereo not given), the Activity entry in [3] was “inhibitor [(at a rough estimate) 15 % of control]”; in series [4], “inhibitor [(at a rough estimate) <5 % of control]”.
As to `C=CCSCC(NC(C)=O)C(=O)O` (stereo not given), the Activity result in series [5] was “inhibitor [(at a rough estimate) 10 % of control]”; in series [6] it was “inhibitor [(at a rough estimate) 15 % of control]”.
Take `CC(=O)NC(CSCCCc1ccccc1)C(=O)O` (stereo not given): the results for the Activity result in [7] and in series [8] were “inhibitor [(at a rough estimate) 5 % of control]” and “inhibitor [(at a rough estimate) 10 % of control]”, respectively.
Regarding `CCSC[C@@H](NC(C)=O)C(=O)O`, the affinity in series [1], expressed as Ki, was 1100 nM.
`CC(=O)N[C@@H](CS)C(=O)O` [ACETYLCYSTEINE]: in series [9], the Activity entry was “inhibitor [(at a rough estimate) 60 % of control]”.
For `CC(=O)N[C@@H](CS/C(Cl)=C\Cl)C(=O)O`, the figures for the Activity result in series [10] and in [11] were “inhibitor [(at a rough estimate) 5 % of control]” and “inhibitor [(at a rough estimate) 25 % of control]”, respectively.
As for `CCCCCCCCCCCCSC[C@@H](NC(C)=O)C(=O)O`, the figures for the Activity result in series [12] and in [13] were “inhibitor [(at a rough estimate) 15 % of control]” and “inhibitor [(at a rough estimate) <5 % of control]”, respectively.
As for `CCCCSCC(NC(C)=O)C(=O)O` (stereo not given), the Activity result was “inhibitor [(at a rough estimate) 10 % of control]” in series [14], “inhibitor [(at a rough estimate) 5 % of control]” in series [15], “inhibitor [(at a rough estimate) 30 % of control]” in series [16] and “inhibitor [(at a rough estimate) 5 % of control]” in [17].
`CCCCC/C=C\C\C=C/C=C/C=C/[C@@H](SC[C@H](NC(C)=O)C(=O)O)[C@@H](O)CCCC(=O)O`: the inhibition constant Ki in [1] was 9000 nM.
With `CCCC[C@H](NC(C)=O)C(=O)O`, the Activity result in series [18] is “inhibitor [(at a rough estimate) 15 % of control]”; in [19], “inhibitor [(at a rough estimate) 35 % of control]”.
In the case of `CC(=O)NC(CSCCCO)C(=O)O` (stereo not given), the results for the Activity entry in series [20] and in series [21] were “inhibitor [(at a rough estimate) 5 % of control]” and “inhibitor [(at a rough estimate) 30 % of control]”, respectively.

B1: Solute carrier family 22 member 6 (Rattus norvegicus) (protein)
chain: T1 sequence (O35956 whole entry)
As to B1, the Km in series [22] worked out at 2 µM.

Values taken from ChEMBL document CHEMBL2074452, “Mercapturic acids (N-acetylcysteine S-conjugates) as endogenous substrates for the renal organic anion transporter-1” (Mol Pharmacol, 2001).
